The structures appear in SMILES notation. Calls of active or inactive are those of the source. No cut-off for these calls is given here.

For assay [1], the target named is CDK3/Cyclin E (Homo sapiens) (UniProt P24864+Q00526). Description: Inhibition of human CDK3/cyclin E at 500 nM by HotSpot assay relative to control. It counts as protein-complex assay.
Assay [2] addresses Cyclin-dependent kinase 5/CDK5 activator 1 (Homo sapiens) (UniProt Q00535+Q15078). The assay can be described thus: Inhibition of human CDK5/p25 at 500 nM by HotSpot assay relative to control. It counts as protein-complex assay.
Assay [3] concerns the target CDK6/cyclin D1 (Homo sapiens) (UniProt P24385+Q00534). Description: Inhibition of human CDK6/cyclin D1 at 500 nM by HotSpot assay relative to control. The assay is classed as protein-complex assay.
Assay [4] deals with Dual specificity protein kinase CLK2 (Homo sapiens) (UniProt P49760). Description: Inhibition of human CLK2 at 500 nM by HotSpot assay relative to control.
Chain of Dual specificity protein kinase CLK2 (Homo sapiens) (P49760 whole entry, looked up): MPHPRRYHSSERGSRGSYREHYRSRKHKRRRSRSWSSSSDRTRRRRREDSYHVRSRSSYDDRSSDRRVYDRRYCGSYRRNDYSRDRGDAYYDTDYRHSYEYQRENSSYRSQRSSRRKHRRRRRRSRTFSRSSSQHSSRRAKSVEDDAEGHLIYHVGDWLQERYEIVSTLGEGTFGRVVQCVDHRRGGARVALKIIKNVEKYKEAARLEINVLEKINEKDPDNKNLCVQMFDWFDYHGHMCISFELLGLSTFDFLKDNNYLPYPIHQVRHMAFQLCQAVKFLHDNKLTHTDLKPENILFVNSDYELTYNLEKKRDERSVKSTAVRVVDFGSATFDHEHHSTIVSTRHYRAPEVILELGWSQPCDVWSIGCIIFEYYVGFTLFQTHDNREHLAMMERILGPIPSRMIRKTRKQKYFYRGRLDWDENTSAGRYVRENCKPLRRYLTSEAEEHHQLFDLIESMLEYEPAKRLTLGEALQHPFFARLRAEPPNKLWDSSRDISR
The target in assay [5] is Epidermal growth factor receptor (Homo sapiens) (UniProt P00533). Description: Inhibition of human EGFR at 500 nM by HotSpot assay relative to control.
Assay [6] has as its target G protein-coupled receptor kinase 6 (Homo sapiens) (UniProt P43250). Description: Inhibition of human GRK6 at 500 nM by HotSpot assay relative to control.
Assay [7] concerns the target Mitogen-activated protein kinase 10 (Homo sapiens) (UniProt P53779). Description: Inhibition of human JNK3 at 500 nM by HotSpot assay relative to control.
In assay [8] the target is Myosin light chain kinase 2, skeletal/cardiac muscle (Homo sapiens) (UniProt Q9H1R3). Description: Inhibition of human MYLK2 at 500 nM by HotSpot assay relative to control.
Chain of Myosin light chain kinase 2, skeletal/cardiac muscle (Homo sapiens) (Q9H1R3 whole entry): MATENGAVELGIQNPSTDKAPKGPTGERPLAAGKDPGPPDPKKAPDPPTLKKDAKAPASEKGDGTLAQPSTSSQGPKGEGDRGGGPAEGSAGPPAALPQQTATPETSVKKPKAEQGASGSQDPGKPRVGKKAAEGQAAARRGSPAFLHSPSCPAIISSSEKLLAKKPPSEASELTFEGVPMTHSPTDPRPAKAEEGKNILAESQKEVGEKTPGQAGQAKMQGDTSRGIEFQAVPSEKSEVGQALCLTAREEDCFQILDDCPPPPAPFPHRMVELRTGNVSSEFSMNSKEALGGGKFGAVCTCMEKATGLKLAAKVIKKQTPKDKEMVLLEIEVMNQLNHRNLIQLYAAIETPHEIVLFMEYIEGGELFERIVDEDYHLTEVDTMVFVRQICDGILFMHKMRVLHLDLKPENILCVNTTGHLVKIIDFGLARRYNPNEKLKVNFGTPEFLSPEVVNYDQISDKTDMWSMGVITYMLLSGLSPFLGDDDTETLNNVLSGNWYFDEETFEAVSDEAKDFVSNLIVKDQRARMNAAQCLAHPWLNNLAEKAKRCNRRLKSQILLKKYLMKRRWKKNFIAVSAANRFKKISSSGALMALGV
Assay [9] concerns the target Serine/threonine-protein kinase 24 (Homo sapiens) (UniProt Q9Y6E0). The assay can be described thus: Inhibition of human STK24 at 500 nM by HotSpot assay relative to control.
The target of assay [10] is T1, Serine/threonine-protein kinase Nek11 (Homo sapiens) (UniProt Q8NG66).
T1 sequence (whole entry): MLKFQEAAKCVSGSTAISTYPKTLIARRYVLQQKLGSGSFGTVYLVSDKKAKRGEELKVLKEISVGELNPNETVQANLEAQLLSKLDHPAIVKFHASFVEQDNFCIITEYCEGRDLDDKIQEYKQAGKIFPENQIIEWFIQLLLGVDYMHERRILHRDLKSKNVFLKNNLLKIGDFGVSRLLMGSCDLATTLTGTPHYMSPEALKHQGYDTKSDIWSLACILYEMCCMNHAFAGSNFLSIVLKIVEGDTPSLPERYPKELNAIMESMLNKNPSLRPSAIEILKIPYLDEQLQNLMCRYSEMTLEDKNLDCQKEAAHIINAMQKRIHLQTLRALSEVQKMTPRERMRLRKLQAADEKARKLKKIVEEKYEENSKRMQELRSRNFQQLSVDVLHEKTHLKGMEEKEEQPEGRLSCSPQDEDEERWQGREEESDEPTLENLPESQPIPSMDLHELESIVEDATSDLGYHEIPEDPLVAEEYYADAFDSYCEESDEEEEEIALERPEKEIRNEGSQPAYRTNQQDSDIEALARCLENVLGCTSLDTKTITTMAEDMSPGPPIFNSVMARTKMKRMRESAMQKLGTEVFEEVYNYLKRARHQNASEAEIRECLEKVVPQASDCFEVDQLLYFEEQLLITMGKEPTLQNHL
The assay can be described thus: Inhibition of human NEK11 at 500 nM by HotSpot assay relative to control.

For assay [11], the target named is Serine/threonine-protein kinase Nek6 (Homo sapiens) (UniProt Q9HC98). The assay can be described thus: Inhibition of human NEK6 at 500 nM by HotSpot assay relative to control.
Chain of Serine/threonine-protein kinase Nek6 (Homo sapiens) (Q9HC98 whole entry): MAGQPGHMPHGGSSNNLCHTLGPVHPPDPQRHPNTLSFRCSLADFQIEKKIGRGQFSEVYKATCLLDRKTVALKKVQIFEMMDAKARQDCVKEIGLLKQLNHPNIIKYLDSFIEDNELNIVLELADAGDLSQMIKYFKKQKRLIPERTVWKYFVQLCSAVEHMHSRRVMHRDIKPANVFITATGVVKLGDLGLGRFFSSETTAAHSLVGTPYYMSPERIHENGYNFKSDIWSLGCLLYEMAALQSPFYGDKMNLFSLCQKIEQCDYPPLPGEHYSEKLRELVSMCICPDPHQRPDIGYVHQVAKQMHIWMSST
Assay [12] addresses Serine/threonine-protein kinase PAK 5 (Homo sapiens) (UniProt Q9P286). The assay can be described thus: Inhibition of human PAK5 at 500 nM by HotSpot assay relative to control.
Assay [13] concerns the target T2, Testis-specific serine/threonine-protein kinase 2 (Homo sapiens) (UniProt Q96PF2).
T2 sequence (whole entry): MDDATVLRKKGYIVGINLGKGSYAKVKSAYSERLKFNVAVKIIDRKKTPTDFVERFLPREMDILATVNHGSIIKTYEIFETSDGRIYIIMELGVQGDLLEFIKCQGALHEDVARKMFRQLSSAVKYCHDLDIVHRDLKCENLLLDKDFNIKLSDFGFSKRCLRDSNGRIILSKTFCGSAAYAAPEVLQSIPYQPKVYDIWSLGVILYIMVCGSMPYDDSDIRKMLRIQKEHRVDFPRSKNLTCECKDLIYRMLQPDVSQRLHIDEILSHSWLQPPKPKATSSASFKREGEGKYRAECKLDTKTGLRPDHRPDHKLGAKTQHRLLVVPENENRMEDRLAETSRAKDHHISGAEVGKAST
Description: Inhibition of human TSSK2 at 500 nM by HotSpot assay relative to control.

Assay [14] addresses Non-receptor tyrosine-protein kinase TYK2 (Homo sapiens) (UniProt P29597). The assay can be described thus: Inhibition of human TYK2 at 500 nM by HotSpot assay relative to control.
Assay [15] concerns the target T3, Tyrosine-protein kinase receptor TYRO3 (Homo sapiens) (UniProt Q06418).
T3 sequence (whole entry): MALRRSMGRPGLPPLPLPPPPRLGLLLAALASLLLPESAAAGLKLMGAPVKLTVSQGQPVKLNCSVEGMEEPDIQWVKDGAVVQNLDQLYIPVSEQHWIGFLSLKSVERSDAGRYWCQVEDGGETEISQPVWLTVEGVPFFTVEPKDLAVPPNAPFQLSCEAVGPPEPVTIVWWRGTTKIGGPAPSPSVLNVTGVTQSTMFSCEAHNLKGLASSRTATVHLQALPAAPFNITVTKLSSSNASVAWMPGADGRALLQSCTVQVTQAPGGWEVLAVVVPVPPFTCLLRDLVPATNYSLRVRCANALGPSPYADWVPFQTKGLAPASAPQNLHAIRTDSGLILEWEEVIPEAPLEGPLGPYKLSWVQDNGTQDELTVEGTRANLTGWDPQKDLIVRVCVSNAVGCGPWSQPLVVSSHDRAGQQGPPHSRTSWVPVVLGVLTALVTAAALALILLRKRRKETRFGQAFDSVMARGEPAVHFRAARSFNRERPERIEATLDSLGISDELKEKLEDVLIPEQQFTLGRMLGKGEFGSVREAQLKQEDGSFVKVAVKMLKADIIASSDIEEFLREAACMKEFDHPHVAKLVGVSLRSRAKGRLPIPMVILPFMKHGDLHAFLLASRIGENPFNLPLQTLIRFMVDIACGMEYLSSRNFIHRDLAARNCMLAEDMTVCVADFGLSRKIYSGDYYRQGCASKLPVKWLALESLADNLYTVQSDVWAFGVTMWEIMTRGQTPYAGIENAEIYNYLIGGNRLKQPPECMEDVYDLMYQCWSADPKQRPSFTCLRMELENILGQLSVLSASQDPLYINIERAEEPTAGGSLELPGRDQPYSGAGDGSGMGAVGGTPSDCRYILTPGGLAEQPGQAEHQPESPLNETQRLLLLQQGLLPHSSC
Description: Inhibition of human SKY at 500 nM by HotSpot assay relative to control.

A short description of assay [16]: Inhibition of mono-phosphorylated human Insulin receptor (978 to 1283 residues) C981S mutant kinase domain expressed in baculovirus infected Sf9 cells incubated for 1 hr by [gamma-33P]ATP assay.

Chain of Serine/threonine-protein kinase PAK 5 (Homo sapiens) (Q9P286 whole entry, looked up): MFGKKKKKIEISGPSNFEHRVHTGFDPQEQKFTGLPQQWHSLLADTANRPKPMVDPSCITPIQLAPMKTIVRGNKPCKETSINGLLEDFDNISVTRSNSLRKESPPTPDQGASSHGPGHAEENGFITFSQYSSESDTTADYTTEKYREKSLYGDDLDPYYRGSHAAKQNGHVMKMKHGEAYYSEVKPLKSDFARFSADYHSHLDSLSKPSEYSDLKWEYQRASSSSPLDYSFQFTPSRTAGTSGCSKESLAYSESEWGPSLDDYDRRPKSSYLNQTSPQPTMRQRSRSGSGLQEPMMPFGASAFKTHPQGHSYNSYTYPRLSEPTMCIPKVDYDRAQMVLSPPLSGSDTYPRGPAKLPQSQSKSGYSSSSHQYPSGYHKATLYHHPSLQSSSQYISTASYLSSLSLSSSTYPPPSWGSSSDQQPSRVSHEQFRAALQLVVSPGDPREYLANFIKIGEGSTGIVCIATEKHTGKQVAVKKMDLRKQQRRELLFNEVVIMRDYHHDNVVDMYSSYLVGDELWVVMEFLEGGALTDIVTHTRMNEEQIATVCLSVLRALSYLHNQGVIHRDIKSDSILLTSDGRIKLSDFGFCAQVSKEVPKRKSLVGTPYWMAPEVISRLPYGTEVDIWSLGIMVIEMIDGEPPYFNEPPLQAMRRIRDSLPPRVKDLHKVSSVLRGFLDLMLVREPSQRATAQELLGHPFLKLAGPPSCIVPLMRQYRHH
Chain of CDK3/Cyclin E (Homo sapiens) (P24864 whole entry, looked up): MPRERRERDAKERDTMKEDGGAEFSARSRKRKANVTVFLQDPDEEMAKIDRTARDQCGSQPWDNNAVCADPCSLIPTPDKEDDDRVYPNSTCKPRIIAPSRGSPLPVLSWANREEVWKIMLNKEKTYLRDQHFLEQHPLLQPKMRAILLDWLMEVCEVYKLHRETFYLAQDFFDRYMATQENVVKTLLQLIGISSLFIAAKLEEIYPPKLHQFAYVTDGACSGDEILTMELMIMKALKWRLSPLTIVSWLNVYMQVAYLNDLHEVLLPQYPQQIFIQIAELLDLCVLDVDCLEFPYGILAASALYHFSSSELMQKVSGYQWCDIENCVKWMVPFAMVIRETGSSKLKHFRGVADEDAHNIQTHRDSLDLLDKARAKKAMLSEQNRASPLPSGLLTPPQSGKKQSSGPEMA
Chain of CDK3/Cyclin E (Homo sapiens) (Q00526 whole entry, looked up): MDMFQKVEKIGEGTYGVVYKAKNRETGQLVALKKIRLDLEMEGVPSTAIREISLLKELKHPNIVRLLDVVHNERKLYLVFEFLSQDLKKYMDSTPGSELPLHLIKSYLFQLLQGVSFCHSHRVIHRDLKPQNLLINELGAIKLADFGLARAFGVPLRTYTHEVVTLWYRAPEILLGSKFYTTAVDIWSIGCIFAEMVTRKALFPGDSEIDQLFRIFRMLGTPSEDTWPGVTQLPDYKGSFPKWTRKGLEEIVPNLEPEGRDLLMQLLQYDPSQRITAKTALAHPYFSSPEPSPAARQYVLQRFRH
Chain of Serine/threonine-protein kinase 24 (Homo sapiens) (Q9Y6E0 whole entry, looked up): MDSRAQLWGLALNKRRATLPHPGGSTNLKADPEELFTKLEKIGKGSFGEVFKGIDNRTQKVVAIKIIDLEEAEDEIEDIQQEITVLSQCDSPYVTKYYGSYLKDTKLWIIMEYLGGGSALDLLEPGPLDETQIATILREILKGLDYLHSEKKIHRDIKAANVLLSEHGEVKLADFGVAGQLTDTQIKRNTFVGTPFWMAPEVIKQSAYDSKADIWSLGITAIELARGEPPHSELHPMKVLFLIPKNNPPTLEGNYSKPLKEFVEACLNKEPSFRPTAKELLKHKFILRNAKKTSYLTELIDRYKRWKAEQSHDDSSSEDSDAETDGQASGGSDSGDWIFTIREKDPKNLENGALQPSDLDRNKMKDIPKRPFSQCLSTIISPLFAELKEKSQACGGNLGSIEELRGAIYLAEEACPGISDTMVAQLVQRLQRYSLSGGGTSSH
Chain of Non-receptor tyrosine-protein kinase TYK2 (Homo sapiens) (P29597 whole entry): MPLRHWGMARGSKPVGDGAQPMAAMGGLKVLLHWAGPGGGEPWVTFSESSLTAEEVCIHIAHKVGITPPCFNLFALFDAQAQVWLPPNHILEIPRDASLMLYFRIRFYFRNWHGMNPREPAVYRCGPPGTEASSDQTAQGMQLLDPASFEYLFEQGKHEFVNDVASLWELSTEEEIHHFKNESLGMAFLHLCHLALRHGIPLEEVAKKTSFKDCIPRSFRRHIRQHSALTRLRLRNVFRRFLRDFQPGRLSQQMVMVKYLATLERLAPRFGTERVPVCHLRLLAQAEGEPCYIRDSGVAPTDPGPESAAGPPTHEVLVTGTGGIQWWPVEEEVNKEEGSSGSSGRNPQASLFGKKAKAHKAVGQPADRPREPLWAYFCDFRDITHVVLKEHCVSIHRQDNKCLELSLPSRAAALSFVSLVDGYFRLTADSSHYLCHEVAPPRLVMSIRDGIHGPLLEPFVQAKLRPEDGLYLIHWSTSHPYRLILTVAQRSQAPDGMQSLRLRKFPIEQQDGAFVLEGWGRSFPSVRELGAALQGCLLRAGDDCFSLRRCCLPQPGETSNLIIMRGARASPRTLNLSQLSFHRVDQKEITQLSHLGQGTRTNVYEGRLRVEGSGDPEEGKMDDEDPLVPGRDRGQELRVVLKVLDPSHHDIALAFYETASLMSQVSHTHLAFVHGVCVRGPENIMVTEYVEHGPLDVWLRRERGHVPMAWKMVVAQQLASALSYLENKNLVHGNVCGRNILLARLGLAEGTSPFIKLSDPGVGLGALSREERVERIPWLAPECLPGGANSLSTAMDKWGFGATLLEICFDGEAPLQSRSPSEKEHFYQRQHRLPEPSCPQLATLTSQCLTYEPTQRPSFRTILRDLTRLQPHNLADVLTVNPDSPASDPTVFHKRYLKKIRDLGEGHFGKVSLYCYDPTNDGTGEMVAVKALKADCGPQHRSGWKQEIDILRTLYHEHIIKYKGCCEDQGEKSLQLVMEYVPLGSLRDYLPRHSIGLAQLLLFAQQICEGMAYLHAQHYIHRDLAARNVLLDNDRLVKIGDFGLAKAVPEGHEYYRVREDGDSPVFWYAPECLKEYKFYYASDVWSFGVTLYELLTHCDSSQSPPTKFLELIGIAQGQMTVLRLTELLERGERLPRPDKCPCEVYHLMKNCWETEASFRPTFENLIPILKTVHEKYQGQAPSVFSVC
Chain of Mitogen-activated protein kinase 10 (Homo sapiens) (P53779 whole entry): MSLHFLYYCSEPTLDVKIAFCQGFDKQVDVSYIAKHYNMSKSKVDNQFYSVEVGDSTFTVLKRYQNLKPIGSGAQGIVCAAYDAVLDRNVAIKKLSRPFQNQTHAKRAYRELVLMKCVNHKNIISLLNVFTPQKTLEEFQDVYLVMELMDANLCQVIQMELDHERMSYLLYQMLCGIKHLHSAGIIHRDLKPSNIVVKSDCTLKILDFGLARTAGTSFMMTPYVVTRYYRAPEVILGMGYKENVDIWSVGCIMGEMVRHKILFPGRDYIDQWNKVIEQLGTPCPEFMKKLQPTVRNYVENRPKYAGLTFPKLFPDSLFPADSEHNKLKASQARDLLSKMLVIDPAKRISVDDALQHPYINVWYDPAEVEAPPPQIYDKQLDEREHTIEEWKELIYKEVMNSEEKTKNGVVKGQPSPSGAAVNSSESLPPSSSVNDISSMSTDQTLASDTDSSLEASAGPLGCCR

Turning to `Oc1n[nH]c2nnc(-c3c(-c4ccccc4)nn4ccccc34)cc12`, the inhibition was 1.33% in assay [1]; 1.29% in assay [2]; -3.16% in assay [3]; 2.49% in [4]; 10% in assay [5]; 1.01% in assay [6]. The inhibition in assay [7] is 5.98%; in assay [8] it was -2.71%; in assay [9], -2.3%; in [10], -4.37%; in assay [11], 3.5%; in assay [12], 11.6%. The results for the inhibition in assay [13], in assay [14] and in assay [15] were -1.61%, -3.67% and 10.1%, respectively. In addition, the inhibition result in [16] was “Active”.
`Nc1n[nH]c2nnc(-c3c(-c4ccccc4)nn4ccccc34)cc12`: the inhibition in assay [1] is 3.23%; in assay [2] it was -0.57%; in assay [3] it was -0.33%; in [4] it was -1.46%; in assay [5], 16.1%; in assay [6], 0.69%. Further, the inhibition was -3.19% in [7]; -0.61% in assay [8]; 25.4% in assay [9]; 4.86% in [10]; 4.45% in assay [11]; 1.83% in assay [12]. The inhibition in assay [13] is -4.17%; in [14], -3.67%; in [15] it was 2.41%. Besides, the inhibition entry in [16] is “Active”.
